Measurements from PMC6060375 (Drug Delivery, 2018).

Tests used:
[1] = Tissue distribution of TA in tumor-bearing nude mice (GC-MS/MS); assay type: in vivo; conditions: BALB/c nude, mouse, spleen, intravenous; TA measured after treatment of nude mice with mPEG2K-SA-TA; dose group not stated; read-out: tissue exposure to TA in spleen
Protocol: In order to better support the anti-tumor evaluation and following histological assay, the harvested tissues were prepared as abovementioned method to monitor the amount of TA by GC–MS/MS in these tissues, including heart, liver, spleen, lung, kidney and tumor.

[2] = Pharmacokinetics of TA in rats after i.v. administration; assay type: in vivo, Sprague–Dawley (SD) rats; conditions: both sexes, Sprague-Dawley, rat, plasma, iv, total TA, 3 mg/kg TA equivalent
Protocol: Sprague–Dawley (SD) rats (male and female, 300 ± 30 g) were purchased from SIPPR/BK Experimental Animal Co., Ltd (Shanghai, China). All animals were kept in a humanized environment, with the temperature maintained at 20 ± 2 °C and relative humidity at 50 ± 10%. All the animal procedures were performed following the approved protocol. SD rats were randomly divided into different groups (n = 4 in each group). Rats from different groups were intravenously (i.v.) administrated with TA solution, PEGylated TA solution mPEG2K-SA-TA, respectively. At the designated time points, the blood samples were collected into polyethylene tubes containing EDTA at 0, 0.083, 0.167, 0.5, 0.75, 1, 2, 4, 8, 12, 24, 36 and 48 h and then centrifuged at 12,000 rpm for 5 min to obtain plasma. The plasma samples were stored at −80 °C till analysis. The harvested plasma samples were prepared by sample direct saponification or extraction and analyzed by GC–MS/MS (Wang et al., [2015]). […]
The pharmacokinetic parameters were calculated by a noncompartmental analysis using WinNonlin (Version 6.4; Pharsight, Mountain View, CA, USA). […] The systemic exposure to TA (area under the plasma concentration versus time profile from the dosing time to the terminal sampling time, AUC0−t) was calculated by trapezoidal rule. […]

CCCCCCCCCCCCCCCCCCCCCCCCCCCCCCO [TA, Triacontanol]
concentration at 21 days [1]: 4170 ng/g | half-life ([2]; read-out: elimination half-life (t1/2) (converted)): 2.57 h | MRT ([2]; read-out: mean residence time): 2.95 h
